According to patent publication US20110268789A1, “USE OF PITUITARY ADENYLATE CYCLASE-ACTIVATING POLYPEPTIDE (PACAP) AND PACAP ANALOGS AS ADJUNCTIVE TREATMENTS WITH ANTICANCER AGENTS” (priority 2008, published 2011):

Key:
[1] = system: human erythroleukemia cells; assay: Thalidomide-induced apoptotic cell death of erythroleukemia cells; assay type: cell-based; details: thalidomide 48 hours, FIG. 20
Protocol: The human myeloid leukemia cells were cultured in RPMI 1640 medium supplemented with 10% non-inactivated fetal bovine serum. The effects of PACAP38, [D-Ser^2]PACAP38 and VIP on apoptotic cell death was assessed by the quantitative determination of cytoplasmic histone-associated DNA-fragmentation (mono- and oligonucleosomes) after exposure to thalidomide for 48 hours. Each value represents the mean plus/minus the standard deviation of four determinations. **p<0.01 and *p<0.05 compared to the thalidomide-treated (control) cells.

PAC1 receptor = target: T1, PAC1 receptor (Homo sapiens, UniProt P41586); details: cited from earlier work
T1 sequence (P41586 21-468): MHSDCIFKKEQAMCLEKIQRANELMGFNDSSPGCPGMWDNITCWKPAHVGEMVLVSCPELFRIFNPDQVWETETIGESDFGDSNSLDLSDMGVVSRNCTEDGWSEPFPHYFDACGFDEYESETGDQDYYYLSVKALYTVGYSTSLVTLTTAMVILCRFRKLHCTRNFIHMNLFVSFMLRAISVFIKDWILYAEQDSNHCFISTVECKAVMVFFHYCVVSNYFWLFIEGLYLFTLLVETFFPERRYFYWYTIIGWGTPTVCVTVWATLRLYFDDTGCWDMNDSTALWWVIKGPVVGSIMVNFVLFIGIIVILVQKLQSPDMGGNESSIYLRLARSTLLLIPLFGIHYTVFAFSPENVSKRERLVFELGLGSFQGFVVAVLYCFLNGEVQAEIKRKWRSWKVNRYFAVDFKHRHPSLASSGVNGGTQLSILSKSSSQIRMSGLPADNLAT

Male C57BL/6 mice = assay: Cisplatin-induced nephrotoxicity in mice; assay type: in vivo, mouse; details: cisplatin 20 mg/kg i.p., FIG. 10
Protocol: (§1) Male C57BL/6 mice were given a single intraperitoneal injection of 20 mg/kg of cisplatin. Twenty nanomoles of PACAP38 were given intraperitoneally 1 hour before the injection of cisplatin and additional doses were given at 24 and 48 hours after the initial dose. The control group of mice was injected intraperitoneally with the same volume of saline as for the injections of cisplatin and PACAP38 on the same schedule. The mice were euthanized 24 hours after the final injection of PACAP38. Each value represents the mean plus/minus the standard error of four determinations. ***p<0.001 and **p<0.01 compared to the group treated only with cisplatin.
as §1, with “PACAP38. TNF-α was extracted from one kidney of each mouse and quantified with an enzyme-linked immunosorbent assay.” for “PACAP38.”
Male C57BL/6 mice were given a single intraperitoneal injection of 20 mg/kg of cisplatin. Twenty nanomoles of PACAP38 were given intraperitoneally 1 hour before the injection of cisplatin and additional doses were given at 24 and 48 hours after the initial dose. The control group of mice were injected intraperitoneally with the same volume of saline as for the injections of cisplatin and PACAP38 on the same schedule. The mice were euthanized 24 hours after the final injection of PACAP38, and the kidneys were removed and fixed in 10% formalin. The fixed sections were stained with hematoxylin and eosin. The sections of the kidneys from control mice show intact renal tubular epithelial cells and well-preserved brush border membranes. The kidneys from mice treated with cisplatin had extensive tubular damage, tubular dilations, intratubular debris, and intratubular casts. […] Tubular damage was more pronounced in the outer cortex in the cisplatin treated mice. The photomicrographs on the left side were made at a lower magnification (×160) than the photomicrographs on the right side (×320). The results described in FIGS. 5, 6, 7, and 8 were from the same experiment.
as §1, with “six” for “four”
as §1, with “The cytoprotective effect of PACAP38 against cisplatin-induced nephrotoxicity was also seen in a common in vivo model. Male” for “Male”, “PACAP38.” for “PACAP38. Each value represents the mean plus/minus the standard error of four determinations. ***p<0.001 and **p<0.01 compared to the group treated only with cisplatin.”

## VIP
[1]
  effect on thalidomide-induced apoptotic cell death: dose-dependent enhancement
PAC1 receptor
  affinity for the PAC1 receptor relative to PACAP: 1,000 times less
Male C57BL/6 mice
  relative potency as cytoprotectants against cisplatin-induced impairment of kidney function (serum creatinine): less potent
